Assay [1] deals with NCI-H460. Briefly: Growth inhibition of human NCI-H460 cells. Type of assay: functional.
For assay [2], the system named is DU-145. Briefly: Growth inhibition of human DU145 cells. Type of assay: functional.
A short description of assay [3]: Induction of rabbit muscle actin polymerization after 1 hr. On the set-up: species or system Oryctolagus cuniculus, Muscle tissue.

≈ marks a conversion by molar mass, not a printed value. Numbered stars: 1 amine (or outer) side, 2 acyl side, 3 side chain; on linkers, the order of the positions; unused ones are H or OH. Square brackets hold non-standard residues; d marks the D form. Peptide text beside a SMILES is read from it. X1 = CC[C@H](C)[C@H](OC(=O)[C@@H](C)[C@@H](CC)N[*:1])C(=O)[*:2]; X3 = C[C@@H](N[*:1])C(=O)C(C)(C)C(=O)[*:2]; X2 = C[C@H](N[*:1])C(=O)C(C)(C)C(=O)[*:2]; NMeY = CN[C@@H](Cc1ccc(O)cc1)C(=O)O; NMeL = CN[C@@H](CC(C)C)C(=O)O; NMeV = CN[C@H](C(=O)O)C(C)C

By GI50 is commonly meant the concentration giving 50% growth inhibition. Usually EC50 stands for the concentration giving half of the maximal effect. Lower therefore signals a more potent agent.

Turning to `CC[C@H](C)[C@@H]1OC(=O)[C@@H](C)[C@@H](CC)NC(=O)[C@H](C)NC(=O)C(C)(C)C(=O)[C@@H](C)NC(=O)[C@H](Cc2ccc(OC)cc2)N(C)C(=O)[C@H](C(C)C)N(C)C(=O)CNC(=O)[C@H](CC(C)C)N(C)C(=O)CNC1=O` (cyclo(A[X1]G[NMeL]G[NMeV][NMeY](Me)[X3])), the 50% growth inhibitory concentration (GI50) in assay [1] came to 0.031 µg/mL (≈ 0.0315 µM); in assay [2] it was 0.24 µg/mL (≈ 0.244 µM).

As to `CC[C@H](C)[C@@H]1OC(=O)[C@@H](C)[C@@H](CC)NC(=O)[C@H](C)NC(=O)C(C)(C)C(=O)[C@H](C)NC(=O)[C@H](Cc2ccc(OC)cc2)N(C)C(=O)[C@H](C(C)C)N(C)C(=O)CNC(=O)[C@H](CC(C)C)N(C)C(=O)CNC1=O` [DOLASTATIN 11] (cyclo(A[X1]G[NMeL]G[NMeV][NMeY](Me)[X2])), the concentration for 50% growth inhibition (GI50) amounted to 0.0013 µg/mL (≈ 0.00132 µM) in assay [1] and 0.22 µg/mL (≈ 0.223 µM) in assay [2]. The molecule further showed an EC50 in assay [3] of 9.5 µM.

For the origin of these results see ChEMBL document CHEMBL1150158, “Lyngbyastatin 1 and Ibu-epilyngbyastatin 1: synthesis, stereochemistry, and NMR line broadening” (J Nat Prod, 2002).
